Measurements reported in US8394831B2, “Carbonylamino-derivatives as novel inhibitors of histone deacetylase” (Janssen Pharmaceutica, N.V., priority 2002, dated 2013).

How the values were obtained:
[1] = system: A2780 ovarian carcinoma cells; assay: Antiproliferative activity on A2780 cells (MTT); format: cell-based, human; conditions: four days of incubation; for IC50: Homo sapiens, 96 h, read-out: Cellular activity pIC50 (converted)
Procedure: Cellular activity of the compounds of formula (I) was determined on A2780 tumour cells using a colorimetric assay for cell toxicity or survival (Mosmann Tim, Journal of Immunological Methods 65: 55-63, 1983)(see example C.2).
All compounds tested were dissolved in DMSO and further dilutions were made in culture medium. Final DMSO concentrations never exceeded 0.1% (v/v) in cell proliferation assays. Controls contained A2780 cells and DMSO without compound and blanks contained DMSO but no cells. MTT was dissolved at 5 mg/ml in PBS. A glycine buffer comprised of 0.1 M glycine and 0.1 M NaCl buffered to pH 10.5 with NaOH (1 N) was prepared (all reagents were from Merck).
The human A2780 ovarian carcinoma cells (a kind gift from Dr. T. C. Hamilton [Fox Chase Cancer Centre, Pennsylvania, USA]) were cultured in RPMI 1640 medium supplemented with 2 mM L-glutamine, 50 μg/ml gentamicin and 10% fetal calf serum. Cells were routinely kept as monolayer cultures at 37° C. in a humidified 5% CO2 atmosphere. Cells were passaged once a week using a trypsin/EDTA solution at a split ratio of 1:40. All media and supplements were obtained from Life Technologies. Cells were free of mycoplasma contamination as determined using the Gen-Probe Mycoplasma Tissue Culture kit (supplier: BioMérieux).
Cells were seeded in NUNC™ 96-well culture plates (Supplier: Life Technologies) and allowed to adhere to the plastic overnight. Densities used for plating were 1500 cells per well in a total volume of 200 μl medium. After cell adhesion to the plates, medium was changed and drugs and/or solvents were added to a final volume of 200 Following four days of incubation, medium was replaced by 200 μl fresh medium and cell density and viability was assessed using an MTT-based assay. To each well, 25 μl MTT solution was added and the cells were further incubated for 2 hours at 37° C. The medium was then carefully aspirated and the blue MTT-formazan product was solubilized by addition of 25 μl glycine buffer followed by 100 μl of DMSO. […] Within an experiment, the results for each experimental condition are the mean of 3 replicate wells. For initial screening purposes, compounds were tested at a single fixed concentration of 10^−6 M. For active compounds, the experiments were repeated to establish full concentration-response curves. For each experiment, controls (containing no drug) and a blank incubation (containing no cells or drugs) were run in parallel. The blank value was subtracted from all control and sample values. For each sample, the mean value for cell growth (in absorbance units) was expressed as a percentage of the mean value for cell growth of the control. […] Herein the effects of test compounds are expressed as pIC50 (the negative log value of the IC50-value).

[2] = biological target: histone deacetylase (HeLa nuclear extracts); assay: In vitro assay for inhibition of histone deacetylase; format: biochemical; set-up: key: pIC50 = -log IC50; conditions: [3H]acetylated histone H4 peptide substrate
Procedure: The in vitro assay for inhibition of histone deacetylase (see example C.1) measures the inhibition of HDAC enzymatic activity obtained with the compounds of formula (I).
HeLa nuclear extracts (supplier: Biomol) were incubated at 60 μg/ml with 2×10^−8 M of radiolabeled peptide substrate. As a substrate for measuring HDAC activity a synthetic peptide, i.e. the amino acids 14-21 of histone H4, was used. The substrate is biotinylated at the NH2-terminal part with a 6-aminohexanoic acid spacer, and is protected at the COOH-terminal part by an amide group and specifically [^3H]acetylated at lysine 16. The substrate, biotin-(6-aminohexanoic)Gly-Ala-([^3H]-acetyl-Lys-Arg-His-Arg-Lys-Val-NH2), was added in a buffer containing 25 mM Hepes, 1 M sucrose, 0.1 mg/ml BSA and 0.01% Triton X-100 at pH 7.4. After 30 min the deacetylation reaction was terminated by the addition of HCl and acetic acid. (final concentration 0.035 mM and 3.8 mM respectively). After stopping the reaction, the free ^3H-acetate was extracted with ethylacetate. After mixing and centrifugation, the radioactivity in an aliquot of the upper (organic) phase was counted in a β-counter. For each experiment, controls (containing HeLa nuclear extract and DMSO without compound), a blank incubation (containing DMSO but no HeLa nuclear extract or compound) and samples (containing compound dissolved in DMSO and HeLa nuclear extract) were run in parallel. In first instance, compounds were tested at a concentration of 10^−5M. […] In each test the blank value was subtracted from both the control and the sample values. The control sample represented 100% of substrate deacetylation. For each sample the radioactivity was expressed as a percentage of the mean value of the controls. […] Herein the effects of test compounds are expressed as pIC50 (the negative log value of the IC50-value).

[3] = Kinetic solubility in aqueous media; format: physicochemical; conditions: aqueous buffer, kinetic from dmso stock; phosphate citrate buffer pH 7.4, turbidity by nephelometer; read-out: Solubility Score
Procedure: Kinetic solubility in aqueous media measures the ability of a compound to stay in aqueous solution upon dilution (see example C.3).
DMSO-stock solutions are diluted with a single aqueous buffer solvent in 3 consecutive steps. For every dilution turbidity is measured with a nephelometer.
In the first dilution step, 10 μl of a concentrated stock-solution of the active compound, solubilized in DMSO (5 mM), was added to 100 μl phosphate citrate buffer pH 7.4 and mixed. In the second dilution step, an aliquot (20 μl) of the first dilution step was further dispensed in 100 μl phosphate citrate buffer pH 7.4 and mixed. Finally, in the third dilution step, a sample (20 μl) of the second dilution step was further diluted in 100 μl phosphate citrate buffer pH 7.4 and mixed. All dilutions were performed in 96-well plates Immediately after the last dilution step the turbidity of the three consecutive dilution steps were measured with a nephelometer. Dilution was done in triplicate for each compound to exclude occasional errors. Based on the turbidity measurements a ranking is performed into 3 classes. Compounds with high solubility obtained a score of 3 and for this compounds the first dilution is clear. Compounds with medium solubility obtained a score of 2. For these compounds the first dilution is unclear and the second dilution is clear.

Row | Structure (SMILES) | Cellular activity pIC50 [1] | Enzyme activity pIC50 [2] | IC50 [1] [nM] | solubility [3] [µM] | melting point [°C]
1 | O=C(NO)c1ccc(N2CCC(NC(=O)C3CCc4ccccc43)CC2)nc1 (centres unmarked) [compound 14] | 5.175 | 6.611 |  |  | 
2 | O=C(NO)c1ccc(N2CCC(NC(=O)c3cc4cc(F)ccc4[nH]3)CC2)nc1 [compound 8] | 5.497 | 6.94 |  |  | 
3 | O=C(CC(c1ccccc1)c1ccccc1)NC1CCN(c2ccc(C(=O)NO)cn2)CC1 [compound 12] | 5.562 | 6.909 |  |  | 
4 | O=C(NO)c1cnc(N2CCC(CNC(=O)c3ccc4ccccc4c3)CC2)nc1 [Co. No. 3] |  | 8.103 | 132 | < 75.8 | 226
5 | COc1ccc2[nH]c(C(=O)NC3CCN(c4ccc(C(=O)NO)cn4)CC3)cc2c1 [compound 10] | 5.747 | 7.19 |  |  | 
6 | O=C(NO)c1cnc(N2CC[C@H](O)[C@H](CNS(=O)(=O)c3ccc4ccccc4c3)C2)nc1 [compound 11] | <5 | 6.215 |  |  | 

Continued, values first:

Row | Cellular activity pIC50 [1] | Enzyme activity pIC50 [2] | IC50 [1] [nM] | solubility [3] [µM] | melting point [°C] | Structure (SMILES)
7 | <5 | 7.061 |  |  |  | O=C(Cc1c[nH]c2ccccc12)NC1CCN(c2ccc(C(=O)NO)cn2)CC1 [compound 13]
8 | 5.86 | 6.951 |  |  |  | O=C(NO)c1ccc(N2CCC(NC(=O)c3cc4ccccc4cn3)CC2)nc1 [compound 6]
9 |  | 5.649 | 4510 |  |  | O=C(NO)c1ccc(N2CCC(NC(=O)c3ccc4ccccc4c3)CC2)cc1 [Co. No. 1]
10 | 5.664 | 6.861 |  |  |  | O=C(NO)c1ccc(N2CCC(NC(=O)c3ccc4ccccc4c3)CC2)nc1 [compound 5]
11 |  | 6.794 | 1790 | > 454 |  | COc1cc(C(=O)NC2CCN(c3ccc(C(=O)NO)cn3)CC2)nc2ccccc12 [Co. No. 2]
12 | 5.331 | 6.416 |  |  |  | Cn1c(C(=O)NC2CCN(c3ccc(C(=O)NO)cn3)CC2)cc2ccccc21 [compound 7]
13 | 5.579 | 6.774 |  |  |  | Cn1cc(C(=O)NC2CCN(c3ccc(C(=O)NO)cn3)CC2)c2ccccc21 [compound 9]
